Data taken from patent US11013745B2, “Triazolopyrimidine, triazolopyridine compounds, and the composition thereof for treating PRC2-mediated diseases” (SHANGHAI INSTITUTE OF MATERIA MEDICA, CHINESE ACADEMY OF …, priority 2017, dated 2021).
Like-named read-outs stand apart in the source and are kept apart here.

What was measured:
[1] = target: PRC2 enzyme (Homo sapiens (Human), UniProt O75530); assay: PRC2 enzyme activity, TR-FRET method; assay type: biochemical
Description: The TR-FRET method was used to measure the PRC2 enzyme activity. First, the enzyme was mixed with compounds at different concentrations and incubated for 30 min at room temperature. The biotin-labeled histone H3 peptide substrate and the cofactor S-adenosylmethionine (SAM) were added to initiate the enzymatic reaction. After reaction was performed at room temperature for 4 hour, Acceptor and Donor were added and incubated for half an hour. The multifunctional microplate reader EnVision (Perkin Elmer Inc.) was used to detect the fluorescence signal. Data were analyzed using GraphPad Prism 5.0 software, and IC50 values were obtained.

[2] = tested on: Pfeiffer cells; assay: Pfeiffer cell growth inhibition in a long term (11 days), CellTiter-Glo; assay type: cell-based, Human; details: 11 days, read-out: Experiment on Pfeiffer cell growth inhibition in a long term (11 days IC50)
Description: Pfeiffer cells in exponential growth phase were seeded in a 24-well plate with a cell density of 1*10E5 cells/mL. Cells were treated on the same day with the compounds at different concentrations. At day 4 and day 7 of compound treatment, fresh media and compounds were changed. After treated with the compounds for 11 days, cell viability was measured using CellTiter-Glo reagent (Promega Corporation). The data was analyzed using GraphPad Prism 5.0 software and GI50 values were obtained.

[3] = tested on: Pfeiffer cells; assay: Growth inhibition of Pfeiffer cells in a long term (14 days), CellTiter-Glo; assay type: cell-based, Human; details: 14 days, read-out: Pfeiffer (14 days) IC50
Description: In a CO2 cell incubator (37° C., 5% CO2), Human diffuse large B-cell lymphoma (DLBCL) cell line, pfeiffer (obtained from ATCC, CRL-2632) were incubated with RPMI 1640 medium (Gibco, purchased from Life Technologies, 22400-089) containing 10% fetal bovine serum (Gibco, purchased from Life Technologies, 10099-141) and 1% antibiotics (penicillin and streptomycin, purchased from Life Technologies, 10378016). […] After seeding the cells, they were placed in a CO2 incubator and allowed to stand for 1 hour. In a 24-well plate containing cells, 2 μL of three-fold gradient of the compounds at 9 different concentrations or DMSO were added to each well, such that the final concentration of the compounds was 0.003-20 μM or 0.3-2000 nM, and the final concentration of DMSO was 0.2%. At day 4, day 7, and day 11 of compound treatment, the fresh medium and compounds were changed, and the cell density of the DMSO control well was diluted to 2*10E5 cells/mL. The cell dilution ratio for other compound wells was the same as that of the DMSO control well. Cell viability was determined by using CellTiter-Glo reagent (purchased from Promega Inc., G7572): cells treated with the compounds for 14 days were transferred to a white 384-well plate (OptiPlate-384, purchased from PerkinElmer, 6007299) at 40 μL/well, an equal volume of CellTiter-Glo reagent was further added. After incubating at room temperature for 10 min, the cold luminescence signal was detected with a multifunctional microplate reader EnVision (PerkinElmer) at a wavelength of 400 to 700 nm. Data were analyzed using GraphPad Prism 5.0 software, and IC50 values were obtained.

[4] = tested on: Karpas-422 cells; assay: Growth inhibition of Karpas-422 cells in a long term (11 days), CellTiter-Glo; assay type: cell-based, Human; details: Karpas-422, 11 days, read-out: Karpas-422 (11 days) IC50
[5] = tested on: SU-DHL-4 cells; assay: Growth inhibition of SU-DHL-4 cells in a long term (11 days), CellTiter-Glo; assay type: cell-based, Human; details: SU-DHL-4, 11 days, read-out: SU-DHL-4 (11 days) IC50

Sequence of PRC2 enzyme (O75530 whole entry): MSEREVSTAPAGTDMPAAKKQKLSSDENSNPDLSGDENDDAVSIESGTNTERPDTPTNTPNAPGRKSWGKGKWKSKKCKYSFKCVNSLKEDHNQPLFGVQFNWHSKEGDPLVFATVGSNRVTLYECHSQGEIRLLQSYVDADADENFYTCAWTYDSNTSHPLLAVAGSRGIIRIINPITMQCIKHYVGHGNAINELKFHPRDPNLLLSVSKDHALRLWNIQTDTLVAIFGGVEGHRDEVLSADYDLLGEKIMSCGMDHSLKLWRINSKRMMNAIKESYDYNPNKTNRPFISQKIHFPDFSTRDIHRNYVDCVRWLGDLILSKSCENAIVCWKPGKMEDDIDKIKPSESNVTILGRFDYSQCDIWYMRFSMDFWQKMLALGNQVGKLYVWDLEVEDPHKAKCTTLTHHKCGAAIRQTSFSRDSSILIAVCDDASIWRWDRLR
Sequence of PRC2 enzyme (Q15910 whole entry partner): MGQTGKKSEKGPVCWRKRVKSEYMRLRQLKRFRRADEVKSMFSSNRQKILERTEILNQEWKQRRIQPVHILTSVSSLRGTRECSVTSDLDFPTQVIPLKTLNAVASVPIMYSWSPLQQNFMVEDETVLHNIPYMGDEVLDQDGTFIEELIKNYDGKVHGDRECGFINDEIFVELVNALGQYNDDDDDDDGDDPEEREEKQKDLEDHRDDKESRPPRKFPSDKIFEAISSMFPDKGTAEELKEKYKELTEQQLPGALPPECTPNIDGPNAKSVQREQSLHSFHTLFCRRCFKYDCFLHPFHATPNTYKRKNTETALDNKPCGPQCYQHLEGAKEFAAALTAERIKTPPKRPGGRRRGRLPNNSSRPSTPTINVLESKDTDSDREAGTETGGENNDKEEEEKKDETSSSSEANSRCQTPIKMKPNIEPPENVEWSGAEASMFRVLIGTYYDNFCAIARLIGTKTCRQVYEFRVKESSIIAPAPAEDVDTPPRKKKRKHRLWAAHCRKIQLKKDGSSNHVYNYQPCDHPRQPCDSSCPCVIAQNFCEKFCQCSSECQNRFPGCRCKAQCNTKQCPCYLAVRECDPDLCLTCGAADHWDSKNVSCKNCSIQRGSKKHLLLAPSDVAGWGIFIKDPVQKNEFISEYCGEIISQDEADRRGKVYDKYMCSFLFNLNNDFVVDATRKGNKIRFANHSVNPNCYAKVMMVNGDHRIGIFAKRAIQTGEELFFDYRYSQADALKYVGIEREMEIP
Sequence of PRC2 enzyme (Q15022 whole entry partner): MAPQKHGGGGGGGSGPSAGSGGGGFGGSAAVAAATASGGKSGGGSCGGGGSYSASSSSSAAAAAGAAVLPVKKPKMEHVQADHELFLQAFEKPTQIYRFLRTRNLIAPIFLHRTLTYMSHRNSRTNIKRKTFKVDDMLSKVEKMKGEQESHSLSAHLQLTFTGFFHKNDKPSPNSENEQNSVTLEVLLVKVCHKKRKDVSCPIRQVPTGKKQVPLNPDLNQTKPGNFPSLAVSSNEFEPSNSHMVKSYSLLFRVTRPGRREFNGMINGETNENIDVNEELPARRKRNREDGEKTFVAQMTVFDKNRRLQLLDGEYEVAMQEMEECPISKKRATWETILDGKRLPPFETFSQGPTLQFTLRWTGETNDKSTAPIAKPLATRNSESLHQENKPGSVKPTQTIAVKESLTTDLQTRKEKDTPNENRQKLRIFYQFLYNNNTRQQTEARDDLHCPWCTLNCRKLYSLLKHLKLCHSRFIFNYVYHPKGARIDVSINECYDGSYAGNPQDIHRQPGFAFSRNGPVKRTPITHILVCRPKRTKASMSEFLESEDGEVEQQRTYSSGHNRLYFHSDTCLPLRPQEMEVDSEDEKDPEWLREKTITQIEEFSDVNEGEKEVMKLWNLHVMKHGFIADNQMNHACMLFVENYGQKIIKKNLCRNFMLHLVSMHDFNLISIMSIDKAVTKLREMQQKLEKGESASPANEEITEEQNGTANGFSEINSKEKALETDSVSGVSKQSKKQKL

| IC50 [1] [nM] | IC50 ([2]; Homo sapiens, 264 h) [nM] | IC50 ([3]; Homo sapiens, 336 h) [nM] | IC50 ([4]; Homo sapiens, 264 h) [nM] | IC50 ([5]; Homo sapiens, 264 h) [nM] | IC50 [2] [nM] | IC50 [3] [nM] | IC50 [4] [nM] | IC50 [5] [nM] | SMILES |
| --- | --- | --- | --- | --- | --- | --- | --- | --- | --- |
| 8.9 | 1.7 | 1 | 3.2 | 1 | – | – | – | – | CC(C)S(=O)(=O)N1CC=C(c2cnc(NCc3c(F)ccc4c3CCO4)n3cnnc23)CC1 [SL-ZYE-145] |
| 2.9 | 4.5 | 3 | 4 | 4 | – | – | – | – | O=S(=O)(C1CC1)N1CC=C(c2cnc(NCc3c(F)ccc4c3CCO4)n3cnnc23)CC1 [SL-ZYE-146] |
| 5.2 | 2.7 | 1.2 | 2.8 | 3.1 | – | – | – | – | O=C(C1CC1)N1CC=C(c2cnc(NCc3c(F)ccc4c3CCO4)n3cnnc23)CC1 [SL-ZYE-162] |
| 14.1 | 7 | 4 | 19.9 | 9 to 50 | – | – | – | – | CC1CC(c2cnc(NCc3c(F)ccc4c3CCO4)n3cnnc23)=CCO1 (stereo not shown) [SL-ZYE-196] |
| 7.8 | – | – | – | – | 10 | 5 | 16 | 56 | CC1C=C(c2cnc(NCc3c(F)ccc4c3CCO4)n3cnnc23)CCO1 (stereo not shown) [SL-ZYE-197] |
